Each structure is given as a SMILES string.

The first assay addresses T1, human follicle-stimulating hormone receptor (FSHR) (Homo sapiens, UniProt P23945).
T1 construct: host or cells: CHO-K1
T1 sequence (P23945 18-695): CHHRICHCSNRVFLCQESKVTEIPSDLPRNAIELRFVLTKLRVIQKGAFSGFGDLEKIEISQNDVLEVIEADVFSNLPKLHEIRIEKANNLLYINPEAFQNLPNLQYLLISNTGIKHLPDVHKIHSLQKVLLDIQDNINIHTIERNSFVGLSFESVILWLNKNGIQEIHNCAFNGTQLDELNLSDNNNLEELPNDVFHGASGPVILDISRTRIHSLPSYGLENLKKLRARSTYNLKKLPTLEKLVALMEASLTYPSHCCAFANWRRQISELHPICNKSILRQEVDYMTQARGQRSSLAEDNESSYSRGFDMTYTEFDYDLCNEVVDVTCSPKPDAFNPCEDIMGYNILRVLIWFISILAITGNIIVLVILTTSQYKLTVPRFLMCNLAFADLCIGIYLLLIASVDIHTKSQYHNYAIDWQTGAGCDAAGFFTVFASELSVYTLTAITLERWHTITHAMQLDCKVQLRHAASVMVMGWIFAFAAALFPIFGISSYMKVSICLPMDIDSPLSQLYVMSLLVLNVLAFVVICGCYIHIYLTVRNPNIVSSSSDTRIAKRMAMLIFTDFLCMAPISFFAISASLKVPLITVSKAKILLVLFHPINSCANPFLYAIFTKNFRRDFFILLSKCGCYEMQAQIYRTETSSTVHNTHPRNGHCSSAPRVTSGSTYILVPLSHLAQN
The assay is described as follows: Measurement of agonist cAMP production by activation of human FSHR. The assay is classed as cell-based. The following applies: CHO-K1 human FSHR cells, 30 minutes at 37° C., HTRF cAMP kit; read-out: hFSHR Agonist cAMP EC50. Summed up:
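cAMP output was measured by HTRF after 30 min at 37 °C agonist exposure (0–10,000 nM final) in stably FSHR-transfected CHO-K1 cells. Lysate cAMP was read off a standard curve and fitted to obtain half-maximal EC50.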
For orientation: cAMP levels reflect the balance of adenylyl cyclase and phosphodiesterase activity.
As for `COc1cc2c(cc1-c1cccc(NC(=O)CCOCC(COCCC(=O)O)(COCCC(=O)O)NC(=O)CN3CCN(CC(=O)O)CCN(CC(=O)O)CCN(CC(=O)O)CC3)c1)-c1c(c(C(=O)N3CCOCC3(C)C)nn1-c1cc(Cl)cc(Cl)c1)CO2` [Compound 47, 2,2′,2″-(10-(2-((1,3-bis(2-carboxyethoxy)-2-((3-((3-(1-(3,5-dichlorophenyl)-3(3,3-dimethylmorpholine-4-carbonyl)-7-methoxy-1,4-dihydrochromeno|4,3-clpyrazol-8-yl)phenyl)amino)-3-oxopropoxy)methyl)propan-2-yl)amino)-2-oxoethyl)-1,4,7,10-tetraazacyclododecane-1,4,7-triyl)triacetic acid], the EC50 – broadly, the midpoint of the concentration-response curve – is 10 to 100 nM.
On the same count and under the same terms, for `COc1cc2c(cc1-c1cncc(NC(=O)CCC(=O)NC[C@H](NC(=O)CN3CCN(CC(=O)O)CCN(CC(=O)O)CCN(CC(=O)O)CC3)C(=O)N3CCN(CCS(=O)(=O)O)CC3)c1)-c1c(c(C(=O)N3CCOCC3(C)C)nn1-c1cc(F)cc(F)c1)CO2` [Compound 49, (S)-2,2′,2″-(10-(2-((3-(4-((5-(1-(3,5-difluorophenyl)-3-(3,3-dimethylmorpholine-4-carbonyl)-7-methoxy-1,4-dihydrochromeno[4,3-c]pyrazol-8-yl)pyridin-3-yl)amino)-4-oxobutanamido)-1-oxo-1-(4-(2-sulfoethyl)piperazin-1-yl)propan-2-yl)amino)-2-oxoethyl)-1,4,7,10-tetraazacyclododecane-1,4,7-triyl)triacetic acid--formic acid (1/1)] the value was over 100 nM; for `COc1cc2c(cc1-c1cccc(NC(=O)CCC(=O)NCCCC[C@@H](NC(=O)[C@@H](CC(=O)O)NC(=O)[C@@H](CC(=O)O)NC(=O)CCNC(=O)CN3CCN(CC(=O)O)CCN(CC(=O)O)CCN(CC(=O)O)CC3)C(N)=O)c1)-c1c(c(C(=O)N3CCOCC3(C)C)nn1-c1cc(Cl)cc(Cl)c1)CO2` [Compound 51, 2,2′,2″-(10-((8R,11R,14R)-14-carbamoyl-8,11-bis(carboxymethyl)-23-((3-(1(3,5-dichlorophenyl)-3-(3,3-dimethylmorpholine-4-carbonyl)-7-methoxy-1,4-dihydrochromeno[4,3-c]pyrazol-8-yl)phenyl)amino)-2,6,9,12,20,23-hexaoxo-3,7,10,13,19-pentaazatricosyl)-1,4,7,10-tetraazacyclododecane-1,4,7-triyl)triacetic acid], under 10 nM.
`COc1cc2c(cc1-c1cncc(NC(=O)CCOCCOCCNC(=O)CN3CCN(CC(=O)O)CCN(CC(=O)O)CCN(CC(=O)O)CC3)c1)-c1c(c(C(=O)N3CCOCC3(C)C)nn1-c1cc(Cl)cc(Cl)c1)CO2` [Compound 52, 2,2′,2″-(10-(2-((2-(2-(3-((5-(1-(3,5-dichlorophenyl)-3-(3,3-dimethylmorpholine-4-carbonyl)-7-methoxy-1,4-dihydrochromeno[4,3-c]pyrazol-8-yl)pyridin-3-yl)amino)-3-oxopropoxy)ethoxy)ethyl)amino)-2-oxoethyl)-1,4,7,10-tetraazacyclododecane-1,4,7-triyl)triacetic acid--2,2,2-trifluoroacetic acid (1/1)]: the EC50 is under 10 nM.
`COc1cc2c(cc1-c1cncc(NC(=O)CCOCCNC(=O)CN3CCN(CC(=O)O)CCN(CC(=O)O)CCN(CC(=O)O)CC3)c1)-c1c(c(C(=O)N3CCOCC3(C)C)nn1-c1cc(Cl)cc(Cl)c1)CO2` [Compound 53, 2,2′,2″-(10-(2-((2-(3-((5-(1-(3,5-dichlorophenyl)-3-(3,3-dimethylmorpholine-4-carbonyl)-7-methoxy-1,4-dihydrochromeno[4,3-c]pyrazol-8-yl)pyridin-3-yl)amino)-3-oxopropoxy)ethyl)amino)-2-oxoethyl)-1,4,7,10-tetraazacyclododecane-1,4,7-triyl)triacetic acid--2,2,2-trifluoroacetic acid (1/1)]: the 50% effective concentration (EC50) is under 10 nM.
Consider `COc1cc2c(cc1-c1cncc(NC(=O)CCOCCOCCNC(=O)C3OC(CNC(=O)CN4CCN(CC(=O)O)CCN(CC(=O)O)CCN(CC(=O)O)CC4)C(O)C(O)C3O)c1)-c1c(c(C(=O)N3CCOCC3(C)C)nn1-c1cc(Cl)cc(Cl)c1)CO2` [Compound 54, 2,2′,2″-(10-(2-((((2S,3R,4R,5R,6S)-6-((2-(2-(3-((5-(1-(3,5-dichlorophenyl)-3-(3,3-dimethylmorpholine-4-carbonyl)-7-methoxy-1,4-dihydrochromeno[4,3-c]pyrazol-8-yl)pyridin-3-yl)amino)-3-oxopropoxy)ethoxy)ethyl)carbamoyl)-3,4,5-trihydroxytetrahydro-2H-pyran-2-yl)methyl)amino)-2-oxoethyl)-1,4,7,10-tetraazacyclododecane-1,4,7-triyl)triacetic acid--2,2,2-trifluoroacetic acid (1/1)], for which the EC50 is under 10 nM.
Same read-out and setting: for `COc1cc2c(cc1-c1cncc(NC(=O)CCOCCOCCNC(=O)[C@H]3O[C@@H](CNC(=O)CN4CCN(CC(=O)O)CCN(CC(=O)O)CCN(CC(=O)O)CC4)[C@H](O)[C@@H](O)[C@H]3O)c1)-c1c(c(C(=O)N3CCOCC3(C)C)nn1-c1cc(Cl)cc(Cl)c1)CO2` [Compound 54A, indium (III) 2,2′,2″-(10-(2-((((2S,3R,4R,5R,6S)-6-((2-(2-(3-((5-(1-(3,5-dichlorophenyl)-3-(3,3-dimethylmorpholine-4-carbonyl)-7-methoxy-1,4-dihydrochromeno[4,3-c]pyrazol-8-yl)pyridin-3-yl)amino)-3-oxopropoxy)ethoxy)ethyl)carbamoyl)-3,4,5-trihydroxytetrahydro-2H-pyran-2-yl)methyl)amino)-2-oxoethyl)-1,4,7,10-tetraazacyclododecane-1,4,7-triyl)triacetate] the value was 10 to 100 nM.
Same read-out and setting: then `COc1cc2c(cc1-c1cncc(NC(=O)CNC(=O)CC[C@@H](NC(=O)CNC(=O)CN3CCN(CC(=O)O)CCN(CC(=O)O)CCN(CC(=O)O)CC3)C(=O)O)c1)-c1c(c(C(=O)N3CCOCC3(C)C)nn1-c1cc(Cl)cc(Cl)c1)CO2` [Compound 55, (R)-2,2′,2″-(10-(2-((2-((1-carboxy-4-((2-((5-(1-(3,5-dichlorophenyl)-3-(3,3-dimethylmorpholine-4-carbonyl)-7-methoxy-1,4-dihydrochromeno[4,3-c]pyrazol-8-yl)pyridin-3-yl)amino)-2-oxoethyl)amino)-4-oxobutyl)amino)-2-oxoethyl)amino)-2-oxoethyl)-1,4,7,10-tetraazacyclododecane-1,4,7-triyl)triacetic acid--2,2,2-trifluoroacetic acid (1/1)], with 10 to 100 nM; and `COc1cc2c(cc1-c1cncc(NC(=O)CNC(=O)[C@H](CCC(=O)NC[C@H](O)[C@@H](O)[C@H](O)[C@H](O)CO)NC(=O)CN3CCN(CC(=O)O)CCN(CC(=O)O)CCN(CC(=O)O)CC3)c1)-c1c(c(C(=O)N3CCOCC3(C)C)nn1-c1cc(Cl)cc(Cl)c1)CO2` [Compound 56, 2,2′,2″-(10-(2-(((S)-1-((2-((5-(1-(3,5-dichlorophenyl)-3-(3,3-dimethylmorpholine-4-carbonyl)-7-methoxy-1,4-dihydrochromeno[4,3-c]pyrazol-8-yl)pyridin-3-yl)amino)-2-oxoethyl)amino)-1,5-dioxo-5-(((2S,3R,4R,5R)-2,3,4,5,6-pentahydroxyhexyl)amino)pentan-2-yl)amino)-2-oxoethyl)-1,4,7,10-tetraazacyclododecane-1,4,7-triyl)triacetic acid--2,2,2-trifluoroacetic acid (1/1)], with 10 to 100 nM.
The same measure, in the same setting: then `COc1cc2c(cc1-c1cncc(NC(=O)CCCNC(=O)CCOCCNC(=O)CN3CCN(CC(=O)O)CCN(CC(=O)O)CCN(CC(=O)O)CC3)c1)-c1c(c(C(=O)N3CCOCC3(C)C)nn1-c1cc(F)cc(F)c1)CO2` [Compound 57, 2,2′,2″-(10-(2-((2-(3-((4-((5-(1-(3,5-difluorophenyl)-3-(3,3-dimethylmorpholine-4-carbonyl)-7-methoxy-1,4-dihydrochromeno[4,3-c]pyrazol-8-yl)pyridin-3-yl)amino)-4-oxobutyl)amino)-3-oxopropoxy)ethyl)amino)-2-oxoethyl)-1,4,7,10-tetraazacyclododecane-1,4,7-triyl)triacetic acid--2,2,2-trifluoroacetic acid (1/1)], with 10 to 100 nM.

The assay is the same for the next values; noted with them: hFSHR Agonist cAMP EC50, CHO-K1 human FSHR cells, 30 minutes at 37° C., HTRF cAMP kit.
Take `COc1cc2c(cc1-c1cncc(NC(=O)CCNC(=O)[C@@H](CCCCNC(=O)CN3CCN(CC(=O)O)CCN(CC(=O)O)CCN(CC(=O)O)CC3)NC(=O)CN3CCN(CCS(=O)(=O)O)CC3)c1)-c1c(c(C(=O)N3CCOCC3(C)C)nn1-c1cc(F)cc(F)c1)CO2` [Compound 50, (R)-2,2′,2″-(10-(2-((6-((3-((5-(1-(3,5-difluorophenyl)-3-(3,3-dimethylmorpholine-4-carbonyl)-7-methoxy-1,4-dihydrochromeno[4,3-c]pyrazol-8-yl)pyridin-3-yl)amino)-3-oxopropyl)amino)-6-oxo-5-(2-(4-(2-sulfoethyl)piperazin-1-yl)acetamido)hexyl)amino)-2-oxoethyl)-1,4,7,10-tetraazacyclododecane-1,4,7-triyl)triacetic acid--formic acid (1/1)]: the EC50 is over 100 nM.

Source of the values: US20260137819A1 (Radionetics Oncology, Inc., priority 2022, published 2026).
